In patent US6514997B2, “Antipicornaviral compounds and compositions, their pharmaceutical uses, and materials for their synthesis” (Agouron Pharmaceuticals, Inc., priority 1999, dated 2003):
Read-outs that look alike come from different tables or passages of the source.

Legend:
HRV-14 = experiment: Antirhinoviral H1-HeLa cell culture assay (XTT cell protection, EC50), HRV-14; format: cell-based, human rhinovirus (HRV) serotype-14 in H1-HeLa cells; details: Rhinovirus B, HRV14, H1-HeLa
Summary of the method: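 H1-HeLa cells were infected with HRV-14 at m.o.i. 0.13, or mock-infected, and incubated with compound for two days. Cell protection was read by XTT/PMS formazan absorbance at 450/650 nm to give EC50. CC50 came from mock-infected cells, and TI = CC50/EC50.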

[1] = test system: strains of human rhinovirus (HRV); experiment: Antirhinoviral H1-HeLa cell culture assay (XTT cell protection, EC50), other HRV strains; format: cell-based, human rhinovirus in H1-HeLa cells; details: read-out: EC50
Summary of the method: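 H1-HeLa cells infected, or mock-infected, were incubated with compounds for two days. Cell protection measured by XTT/PMS formazan absorbance at 450/650 nm; TI taken as CC50 divided by EC50.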

[2] = target: T1, Recombinant rhinovirus 3C protease, serotype 14 (Human rhinovirus 14, UniProt P03303); experiment: Inhibition of rhinovirus 3C protease (FRET assay, kobs/[I]), serotype 14; format: biochemical; details: pH 7.6, read-out: kobs/[I] (3C protease inhibition activity)
T1 construct: Recombinant rhinovirus 3C proteases; made in house
Summary of the method: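 Enzyme-start FRET assay with ~1 μM DABCYL/EDANS peptide substrate and 50-100 nM recombinant protease in 50 mM tris pH 7.6, 1 mM EDTA, 2% DMSO. Cleavage followed as fluorescence increase; kobs/[I] derived from progress curves.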

[3] = Cytotoxicity (CC50) in mock-infected H1-HeLa cells, XTT dye reduction; format: cell-based, human; details: human, H1-HeLa cells, mock-infected
Summary of the method: (§1)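 H1-HeLa cells mock-infected, read by XTT/PMS formazan at 450/650 nm.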

H1-HeLa cells = experiment: as above; format: cell-based, human
Summary of the method: as §1

[4] = Human rhinovirus sp., HRV9, H1-HeLa, HRV-9
[5] = Human rhinovirus sp., HRV10, H1-HeLa, HRV-10
[6] = Human rhinovirus sp., HRV16, H1-HeLa, HRV-16
[7] = Human rhinovirus sp., HRV25, H1-HeLa, HRV-25
[8] = Human rhinovirus sp., HRV39, H1-HeLa, HRV-39

T1 sequence (P03303 1538-1719): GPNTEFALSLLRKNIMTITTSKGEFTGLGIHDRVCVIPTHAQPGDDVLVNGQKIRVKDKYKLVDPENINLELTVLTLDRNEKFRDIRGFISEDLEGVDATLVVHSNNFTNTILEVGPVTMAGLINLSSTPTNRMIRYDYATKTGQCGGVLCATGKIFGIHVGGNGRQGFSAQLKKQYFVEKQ

Compound | EC50 (HRV-14) [nM] | EC50 [1, 4] [nM] | EC50 [1, 5] [nM] | EC50 [1, 6] [nM] | EC50 [1, 7] [nM] | EC50 [1, 8] [nM] | kinact/KI ([2]; HRV-14) [M⁻¹ s⁻¹] | CC50 at 2 days ([3]; line of HRV-14) [nM] | CC50 (H1-HeLa cells; line of HRV-9) [nM] | CC50 (H1-HeLa cells; line of HRV-10) [nM] | CC50 (H1-HeLa cells; line of HRV-16) [nM] | CC50 (H1-HeLa cells; line of HRV-25) [nM] | CC50 (H1-HeLa cells; line of HRV-39) [nM] | EC50 ([1]; H1-HeLa, HRV-1A) [nM] | kinact/KI ([2]; HRV-14 3C protease) [M⁻¹ s⁻¹] | CC50 at 2 days ([3]; HRV-14) [nM] | CC50 (H1-HeLa cells; HRV-1A) [nM] | CC50 (H1-HeLa cells; HRV-9) [nM] | CC50 (H1-HeLa cells; HRV-10) [nM] | CC50 (H1-HeLa cells; HRV-25) [nM] | further results
CC[C@@H](C(=O)N[C@H](/C=C/C(=O)OC(C)C)C[C@@H]1CCNC1=O)n1cccc(NC(=O)c2cc(C)on2)c1=O [Compound 52, trans-(2′S,3′″″S,4S)-4-[2′-(3″-{[1′″-(5″″-Methylisoxazol-3″″-yl)methanoyl]amino}-2′″oxo-2′″H-pyridin-1′″-yl)butanoylamino]-5-(2′″″-oxopyrrolidin-3′″″-yl)pent-2-enoic Acid Isopropyl Ester] | 181 | 473 | 176 | 280 | 109 | 337 | 36000 | > 10000 | > 10000 | > 10000 | > 10000 | > 10000 | > 10000 | – | – | – | – | – | – | – | –
Cc1cc(C(=O)Nc2cccn([C@@H](Cc3ccc(F)c(F)c3)C(=O)N[C@H](/C=C/C(=O)OC3CCCCC3)C[C@@H]3CCNC3=O)c2=O)no1 [Compound 54, trans-(2′S,3″″″S,4S)-4-[3′-(3″,4″-Difluorophenyl)-2′-(3′″-{[1″″-(5′″″-methylisoxazol-3′″″-yl)methanoyl]amino}-2″″-oxo-2″″H-pyridin-1″″-yl)propanoylamino]-5-(2″″″-oxopyrrolidin-3″″″-yl)pent-2-enoic Acid Cyclohexyl Ester] | 45 | 517 | 131 | 142 | 215 | 346 | 244000 | > 10000 | > 10000 | > 10000 | > 10000 | > 10000 | > 10000 | 490 | – | – | – | – | – | – | EC50 ([1]; H1-HeLa, HRV-2): 148 nM; CC50 (H1-HeLa cells; line of HRV-1A): > 10000 nM; CC50 (H1-HeLa cells; line of HRV-2): > 10000 nM
C#CC[C@@H](C(=O)N[C@H](/C=C/C(=O)OC1CCCCC1)C[C@@H]1CCNC1=O)n1cccc(NC(=O)c2cc(C)on2)c1=O [Compound 55, trans-(2′S,3′″″S,4S)-4-[2′-(3″-{[1′″-(5″″-Methylisoxazol-3″″-yl)methanoyl]amino}-2′″-oxo-2′″H-pyridin-1′″-yl)pent-4″-ynoylamino]-5-(2′″″-oxopyrrolidin-3′″″-yl)pent-2-enoic Acid Cyclohexyl Ester] | 173 | 531 | 195 | – | 515 | – | – | – | – | – | – | – | – | 520 | 34000 | > 10000 | > 10000 | > 10000 | > 10000 | > 10000 | –
Cc1cc(C(=O)Nc2cccn([C@@H](Cc3ccc(F)c(F)c3)C(=O)N[C@H](/C=C/C(=O)OC3CCCCCC3)C[C@@H]3CCNC3=O)c2=O)no1 [Compound 56, trans-(2′S,3″″″S,4S)-4-[3′-(3″,4″-Difluorophenyl)-2′-(3′″-{[1″″-(5′″″-methylisoxazol-3′″″-yl)methanoyl]aminol}-2″″-oxo-2″″H-pyridin-1″″-yl)propanoylamino]-5-(2″″″-oxopyrrolidin-3″″″-yl)pent-2-enoic Acid Cycloheptyl Ester] | 163 | 546 | 158 | – | 400 | – | – | – | – | – | – | – | – | 504 | 99000 | > 10000 | > 10000 | > 10000 | > 10000 | > 10000 | –
